For this assay, the system named is NIH-3T3/Gli reporter cells. Put plainly: Evaluation of compound: Shh-N-induced luciferase activity in NIH-3T3/Gli reporter cells (Smo inhibitory action). Type of assay: cell-based. As to conditions: 48 hr; for inhibition at 1 µM: NIH3T3, 1 μM compound, mouse Shh-N end fragment supernatant, read-out: inhibition rate (%) at 1 μM; for IC50: NIH3T3, mouse Shh-N end fragment supernatant, read-out: IC50 value (compound concentration necessary for achieving 50% of the maximum value of inhibition rate). The method, then: HEK293 cells were grown in D-MEM medium (Invitrogen) containing 10% fetal bovine serum in a 10 cm dish and pcDNA3.1/mShh-N was introduced into the cells using FuGENE6 (Roche Applied Science). Thereafter, the HEK293 cells were cultured in a carbon dioxide gas incubator at 37° C. for 24 hours, and the medium was exchanged with D-MEM medium (Invitrogen) containing 2% fetal bovine serum. After culturing for 48 hr, a culture supernatant containing recombinant type mouse Shh-N end fragment was obtained by filtration using a filter ([…]).
Using D-MEM (Invitrogen) containing 10% fetal bovine serum, expression plasmid pcDNA3.1 and Gli reporter plasmid (pGL3/δ-cry promoter, 8×Gli binding site) produced by the method of Experimental Example 1 were introduced into NIH-3T3 cells grown in a 10 cm dish by the use of FuGENE6 (Roche Applied Science).
After culture for 24 hr, the cells were recovered, suspended in D-MEM medium containing 10% fetal bovine serum and supplemented with Geneticin (Life Technologies Oriental, Inc.) to a final concentration of 500 μg/ml, diluted to 10^4 cells/ml, plated on a 96 well plate, and cultured in a carbon dioxide gas incubator at 37° C. to give Geneticin resistant transformed cell line.
The obtained transformed cell line was cultured in a 96 well plate, mouse Shh-N end fragment obtained in Experimental Example 3 was added, and NIH-3T3/Gli reporter cell, which is a cell line capable of induction of luciferase expression, was selected.
NIH-3T3/Gli reporter cells cultured in D-MEM (Invitrogen) containing 10% fetal bovine serum were plated in a 96 well white plate at 1×10^4 cells/well, and cultured overnight in a carbon dioxide gas incubator at 37° C. The medium was removed, a compound (50 μl) and culture supernatant of mouse Shh-N end fragment-expressing HEK293 (D-MEM medium containing 2% fetal bovine serum, 50 μl) were added, and the cells were cultured for 48 hr in a carbon dioxide gas incubator at 37° C. Bright-Glo (Promega, 50 μl) was added, and the mixture was stirred, after which luciferase activity was measured by EnVision (PerkinElmer). The inhibition rate was calculated based on the luciferase activity of the control without addition of the compound as 100. The concentration of the compound and the inhibition rate were analyzed by PRISM3.00 (software of GraphPad), based on which the IC50 value (compound concentration necessary for achieving 50% of the maximum value of inhibition rate) of the compound was calculated.

Each structure is given as a SMILES string. Structures can show the parent of a compound that is named as a salt. Some results are limits rather than exact numbers.

Broadly, the inhibition is the relative decrease from the control value, in per cent.

As to `CCN(C(C)=O)C1CCN(C(=O)c2sc3c(c2OC)c(=O)n(CC(=O)c2ccccc2)c2ccccc32)C1` (stereo not drawn) [Example 2, N-ethyl-N-(1-{[3-methoxy-4-oxo-5-(2-oxo-2-phenylethyl)-4,5-dihydrothieno[3,2-c]quinolin-2-yl]carbonyl}pyrrolidin-3-yl)acetamide], the inhibition at 1 µM was determined as 100% and the IC50 was at most 1000 nM.

As to `CCN(CC)CCN(C)C(=O)c1sc2c(c1OC)c(=O)n(Cc1ccccn1)c1ccccc21` [Example 3, N-[2-(diethylamino)ethyl]-3-methoxy-N-methyl-4-oxo-5-(pyridin-2-ylmethyl)-4,5-dihydrothieno[3,2-c]quinoline-2-carboxamide ditrifluoroacetate], the inhibition at 1 µM is 100% and the IC50 is at most 1000 nM.

Take `COc1c(C(=O)NCCN2CCCCC2)sc2c1c(=O)n(CC(=O)c1ccccc1)c1ccccc21` [Example 9, 3-methoxy-4-oxo-5-(2-oxo-2-phenylethyl)-N-(2-piperidin-1-ylethyl)-4,5-dihydrothieno[3,2-c]quinoline-2-carboxamide trifluoroacetate]: the inhibition at 1 µM worked out at 100% and the IC50 was at most 1000 nM.

For the compound `CCN(CC)CCCC(C)NC(=O)c1sc2c(c1OC)c(=O)n(CC(=O)c1ccccc1)c1ccccc21` (stereo not drawn) [Example 13, N-[4-(diethylamino)-1-methylbutyl]-3-methoxy-4-oxo-5-(2-oxo-2-phenylethyl)-4,5-dihydrothieno[3,2-c]quinoline-2-carboxamide trifluoroacetate], the inhibition at 1 µM was found to be 100% and the IC50 was at most 1000 nM.

As to `COc1c(C(=O)N(C)C2CCN(C)C2)sc2c1c(=O)n(CC(=O)c1ccccc1)c1ccccc21` (stereo not drawn) [Example 16, 3-methoxy-N-methyl-N-(1-methylpyrrolidin-3-yl)-4-oxo-5-(2-oxo-2-phenylethyl)-4,5-dihydrothieno[3,2-c]quinoline-2-carboxamide trifluoroacetate], the inhibition at 1 µM was found to be 100% and the IC50 was at most 1000 nM.

For `COc1c(C(=O)N2CCCN(C)CC2)sc2c1c(=O)n(CC(=O)c1ccccc1)c1ccccc21` [Example 17, 3-methoxy-2-[(4-methyl-1,4-diazepan-1-yl)carbonyl]-5-(2-oxo-2-phenylethyl)thieno[3,2-c]quinolin-4(5H)-one trifluoroacetate], the inhibition at 1 µM was 99% and the IC50 was at most 1000 nM.

In the case of `COc1c(C(=O)N(CCC#N)Cc2cccnc2)sc2c1c(=O)n(CC(=O)c1ccccc1)c1ccccc21` [Example 22, N-(2-cyanoethyl)-3-methoxy-4-oxo-5-(2-oxo-2-phenylethyl)-N-(pyridin-3-ylmethyl)-4,5-dihydrothieno[3,2-c]quinoline-2-carboxamide trifluoroacetate], the inhibition at 1 µM came to 91% and the IC50 is at most 1000 nM.

Turning to `COc1c(C(=O)N(C)CC(=O)N2CCCC2)sc2c1c(=O)n(CC(=O)c1ccccc1)c1ccccc21` [Example 27, 3-methoxy-N-methyl-4-oxo-5-(2-oxo-2-phenylethyl)-N-(2-oxo-2-pyrrolidin-1-ylethyl)-4,5-dihydrothieno[3,2-c]quinoline-2-carboxamide], the inhibition at 1 µM was determined as 100% and the IC50 is at most 1000 nM.

`COc1c(C(=O)NCCO)sc2c1c(=O)n(CC(=O)c1ccccc1)c1ccccc21` [Example 32, N-(2-hydroxyethyl)-3-methoxy-4-oxo-5-(2-oxo-2-phenylethyl)-4,5-dihydrothieno[3,2-c]quinoline-2-carboxamide]: the inhibition at 1 µM was 95% and the IC50 was at most 1000 nM.

On to `CCN(CC)CCN(C)C(=O)c1sc2c(c1OC)c(=O)n(CC1CC1)c1ccccc21` [Example 41, 5-(cyclopropylmethyl)-N-[2-(diethylamino)ethyl]-3-methoxy-N-methyl-4-oxo-4,5-dihydrothieno[3,2-c]quinoline-2-carboxamide], for which the inhibition at 1 µM was 100% and the IC50 was at most 1000 nM.

On to `CCOc1c(C(=O)NCCN2CCCC2)sc2c1c(=O)n(CC(=O)c1ccccc1)c1ccccc21` [Example 43, 3-ethoxy-4-oxo-5-(2-oxo-2-phenylethyl)-N-(2-pyrrolidin-1-ylethyl)-4,5-dihydrothieno[3,2-c]quinoline-2-carboxamide], for which the inhibition at 1 µM amounted to 100% and the IC50 was at most 1000 nM.

`CCOc1c(C(=O)N(C)CCN(CC)CC)sc2c1c(=O)n(CC(=O)c1ccccc1)c1ccccc21` [Example 45, N-[2-(diethylamino)ethyl]-3-ethoxy-N-methyl-4-oxo-5-(2-oxo-2-phenylethyl)-4,5-dihydrothieno[3,2-c]quinoline-2-carboxamide hydrochloride]: the inhibition at 1 µM was 100% and the IC50 was at most 1000 nM.

With `CCN(CC)CCN(C)C(=O)c1sc2c(c1OC)c(=O)n(Cc1ccc(OC)cc1)c1ccccc21` [Example 48, N-[2-(diethylamino)ethyl]-3-methoxy-5-(4-methoxybenzyl)-N-methyl-4-oxo-4,5-dihydrothieno[3,2-c] quinoline-2-carboxamide hydrochloride], the inhibition at 1 µM was 10% and the IC50 is at most 1000 nM.

In the case of `CCN(CC)CCN(C)C(=O)c1sc2c(c1OC)c(=O)n(CC(=O)C(C)(C)C)c1ccccc21` [Example 50, N-[2-(diethylamino)ethyl]-5-(3,3-dimethyl-2-oxobutyl)-3-methoxy-N-methyl-4-oxo-4,5-dihydrothieno[3,2-c]quinoline-2-carboxamide], the inhibition at 1 µM was found to be 100% and the IC50 was at most 1000 nM.

In the case of `CCN(CC)CCN(C)C(=O)c1sc2c(c1OC)c(=O)n(CCOc1ccccc1)c1ccccc21` [Example 51, N-[2-(diethylamino)ethyl]-3-methoxy-N-methyl-4-oxo-5-(2-phenoxyethyl)-4,5-dihydrothieno[3,2-c]quinoline-2-carboxamide], the inhibition at 1 µM amounted to 100% and the IC50 was at most 1000 nM.

`CCN(CC)CCN(C)C(=O)c1sc2c(c1OC)c(=O)n(CC(=O)Nc1ccccc1)c1ccccc21` [Example 52, N-[2-(diethylamino)ethyl]-3-methoxy-N-methyl-4-oxo-5-[2-oxo-2-(phenylamino)ethyl]-4,5-dihydrothieno[3,2-c]quinoline-2-carboxamide hydrochloride]: the inhibition at 1 µM turned out to be 95% and the IC50 was at most 1000 nM.

For the compound `CCOC(=O)Cn1c(=O)c2c(OC)c(C(=O)N(C)CCN(CC)CC)sc2c2ccccc21` [Example 53, ethyl [2-{[2-(diethylamino)ethyl](methyl)carbamoyl}-3-methoxy-4-oxothieno[3,2-c]quinolin-5(4H)-yl]acetate], the inhibition at 1 µM was determined as 95% and the IC50 is at most 1000 nM.

In the case of `CCN(CC)CCN(C)C(=O)c1c(OC)c2c(=O)n(CC(=O)c3ccccc3)c3ccccc3c2n1C` [Example 56, N-[2-(diethylamino)ethyl]-3-methoxy-N,1-dimethyl-4-oxo-5-(2-oxo-2-phenylethyl)-4,5-dihydro-1H-pyrrolo[3,2-c]quinoline-2-carboxamide hydrochloride], the inhibition at 1 µM came out at 100% and the IC50 was at most 1000 nM.

With `COc1c(C(=O)NCCN2CCC(O)CC2)n(C)c2c1c(=O)n(CC(=O)c1ccccc1)c1ccccc21` [Example 69, N-[2-(4-hydroxypiperidin-1-yl)ethyl]-3-methoxy-1-methyl-4-oxo-5-(2-oxo-2-phenylethyl)-4,5-dihydro-1H-pyrrolo[3,2-c]quinoline-2-carboxamide], the inhibition at 1 µM came to 100% and the IC50 is at most 1000 nM.

In the case of `COc1c(C(=O)NCCN2CCOCC2)n(C)c2c1c(=O)n(CC(=O)c1ccccc1)c1ccccc21` [Example 71, 3-methoxy-1-methyl-N-(2-morpholin-4-ylethyl)-4-oxo-5-(2-oxo-2-phenylethyl)-4,5-dihydro-1H-pyrrolo[3,2-c]quinoline-2-carboxamide], the inhibition at 1 µM worked out at 100% and the IC50 was at most 1000 nM.

With `COc1c(C(=O)N2CCCCC2CN)sc2c1c(=O)n(CC(=O)c1ccccc1)c1ccccc21` (stereo not drawn) [Example 73, 2-{[2-(aminomethyl)piperidin-1-yl]carbonyl}-3-methoxy-5-(2-oxo-2-phenylethyl)thieno[3,2-c]quinolin-4(5H)-one hydrochloride], the inhibition at 1 µM was 100% and the IC50 is at most 1000 nM.

For the origin of these results see patent publication US8217176B2, “Fused heterocyclic derivative and use thereof” (Takeda Pharmaceutical Company Limited, priority 2008, dated 2012).
